Like-named read-outs stand apart in the source and are kept apart here.

33 compounds from patent US20110065694A1 (priority 2009, published 2011) can be followed below.

The target of the experiment is human histamine H3 receptor (Homo sapiens, UniProt Q9Y5N1). Briefly: H3 GTPγS assay (SPA method), histamine H3 in vitro assay. In kind it is biochemical. As for the experimental part: Briefly, cells expressing the human histamine H3 receptor were homogenized in 15 mM Tris-HCl pH 7.5, 2 mM MgCl2, 0.3 mM EDTA, and 1 mM EGTA. […] Membranes were frozen in liquid nitrogen until use. On the day of the assay, membranes were thawed and diluted in assay buffer (20 mM HEPES pH 7.4, 100 mM NaCl, 10 μg/ml saponin, 1 mM MgCl2) to give 500 μg/ml and mixed (v/v) with GDP in assay buffer for a final GDP concentration of 10 μM and incubated on ice for at least […]. PVT-WGA beads (Amersham, RPNQ001) were diluted in assay buffer at 50 mg/mL and mixed with GTPγ[^35S] (Amersham, SJ1308) diluted in assay buffer to give ˜25,000 dpm/10 μL and mixed vol/vol just before the start of the reaction.
human histamine H3 receptor, sequence (Q9Y5N1 whole entry): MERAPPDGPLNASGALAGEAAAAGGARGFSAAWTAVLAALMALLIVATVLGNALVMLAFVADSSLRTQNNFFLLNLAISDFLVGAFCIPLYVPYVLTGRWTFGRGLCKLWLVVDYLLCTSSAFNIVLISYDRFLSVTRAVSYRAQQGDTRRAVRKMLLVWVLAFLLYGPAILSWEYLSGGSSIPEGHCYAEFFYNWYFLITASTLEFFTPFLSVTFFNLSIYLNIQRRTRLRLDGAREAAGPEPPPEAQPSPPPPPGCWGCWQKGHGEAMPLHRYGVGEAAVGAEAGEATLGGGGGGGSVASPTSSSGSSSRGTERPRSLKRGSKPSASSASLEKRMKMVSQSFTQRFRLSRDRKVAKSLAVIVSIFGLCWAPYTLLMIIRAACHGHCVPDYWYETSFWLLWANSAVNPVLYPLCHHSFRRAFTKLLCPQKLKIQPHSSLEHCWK
For antagonists testing, 10 μL of a reference agonist ([…]) instead of 10 μL buffer was added at a concentration corresponding to the EC80 (30 nM).
The compounds provided herein were tested in the histamine H3 in vitro assay. In one embodiment, the respective HCl salts of the compounds provided herein were prepared using standard chemical procedures and tested in the histamine H3 in vitro assay.

The mark [1] stands for this setting: membranes of cells expressing human H3, GTPγ[35S] SPA, antagonist testing with reference agonist at EC80 (30 nM), in one embodiment HCl salts tested, read-out: Potency (functional potency as indicated by IC50).

As a reminder, the IC50 is the point on the concentration scale where inhibition reaches its midpoint. `CC(=O)Nc1ccc(-c2ccc3c(c2)nc2n3C3CCC2CN(C2CCC2)C3)cc1` (stereo not drawn) [Compound 27, N-(4-(3-cyclobutyl-2,3,4,5-tetrahydro-1H-1,5-ethanobenzo[4,5]imidazo[1,2-d][1,4]diazepin-8-yl)phenyl)acetamide]: the IC50 under setting [1] was under 100 nM.

For the compound `c1cc2cc(-c3ccc4c(c3)nc3n4C4CCC3CN(C3CCC3)C4)ccc2[nH]1` (stereo not drawn) [Compound 28, 3-cyclobutyl-8-(1H-indol-5-yl)-2,3,4,5-tetrahydro-1H-1,5-ethanobenzo[4,5]imidazo[1,2-d][1,4]diazepine], the concentration for half-maximal inhibition (IC50) under setting [1] was over 1000 nM. As for `c1coc(-c2ccc3c(c2)nc2n3C3CCC2CN(C2CCC2)C3)c1` (stereo not drawn) [Compound 29, 3-cyclobutyl-8-(furan-2-yl)-2,3,4,5-tetrahydro-1H-1,5-ethanobenzo[4,5]imidazo[1,2-d][1,4]diazepine], the IC50 under setting [1] is under 1000 nM. `c1cnc(-c2ccc3c(c2)nc2n3C3CCC2CN(C2CCC2)C3)cn1` (stereo not drawn) [Compound 30, 3-cyclobutyl-8-(pyrazin-2-yl)-2,3,4,5-tetrahydro-1H-1,5-ethanobenzo[4,5]imidazo[1,2-d][1,4]diazepine]: the IC50 under setting [1] was under 100 nM. `NCc1ccc(-c2ccc3c(c2)nc2n3C3CCC2CN(C2CCC2)C3)cc1` (stereo not drawn) [Compound 31, (4-(3-cyclobutyl-2,3,4,5-tetrahydro-1H-1,5-ethanobenzo[4,5]imidazo[1,2-d][1,4]diazepin-8-yl)phenyl)methanamine] came in with an IC50 of under 100 nM.

For the compound `Clc1ccc2c(c1)nc1n2C2CC(C1)N(C1CCC1)C2` (stereo not drawn) [Compound 32, 8-chloro-3-cyclobutyl-2,3,4,5-tetrahydro-1H-1,4-methanobenzo[4,5]imidazo[1,2-d][1,4]diazepine], under setting [1], the IC50 is over 1000 nM. Take `N#Cc1ccc(-c2ccc3c(c2)nc2n3C3CC(C2)N(C2CCC2)C3)cc1` (stereo not drawn) [Compound 33, 4-(3-cyclobutyl-2,3,4,5-tetrahydro-1H-1,4-methanobenzo[4,5]imidazo[1,2-d][1,4]diazepin-8-yl)benzonitrile]: under setting [1], the 50% inhibitory concentration (IC50) is under 1000 nM.

For the compound `c1cn2cc(-c3ccc4c(c3)nc3n4C4CC(C3)N(C3CCC3)C4)ccc2n1` (stereo not drawn) [Compound 34, 3-cyclobutyl-8-(imidazo[1,2-a]pyridin-6-yl)-2,3,4,5-tetrahydro-1H-1,4-methanobenzo[4,5]imidazo[1,2-d][1,4]diazepine], under setting [1], the IC50 is under 1000 nM. Same read-out and setting: for `Clc1ccc2c(c1)nc1n2CC2CC1CN2C1CCC1` (stereo not drawn) [Compound 35, 8-chloro-3-cyclobutyl-2,3,4,5-tetrahydro-1H-2,5-methanobenzo[4,5]imidazo[1,2-d][1,4]diazepine] the value was under 1000 nM; for `N#Cc1ccc(-c2ccc3c(c2)nc2n3CC3CC2CN3C2CCC2)cc1` (stereo not drawn) [Compound 36, 4-(3-cyclobutyl-2,3,4,5-tetrahydro-1H-2,5-methanobenzo[4,5]imidazo[1,2-d][1,4]diazepin-8-yl)benzonitrile], under 1000 nM; for `c1cn2cc(-c3ccc4c(c3)nc3n4CC4CC3CN4C3CCC3)ccc2n1` (stereo not drawn) [Compound 37, 3-cyclobutyl-8-(imidazo[1,2-a]pyridin-6-yl)-2,3,4,5-tetrahydro-1H-2,5-methanobenzo[4,5]imidazo[1,2-d][1,4]diazepine], over 1000 nM. On the same count and under the same terms, the value for `c1ccc2c(c1)ncn2-c1ccc2c(c1)nc1n2CC2CC1CN2C1CCC1` (stereo not drawn) [Compound 38, 8-(1H-benzo[d]imidazol-1-yl)-3-cyclobutyl-2,3,4,5-tetrahydro-1H-2,5-methanobenzo[4,5]imidazo[1,2-d][1,4]diazepine] was under 1000 nM. With `c1cc2c(cc1CN1CCOCC1)nc1n2CC2CC1CN2C1CCC1` (stereo not drawn) [Compound 39, 4-((3-cyclobutyl-2,3,4,5-tetrahydro-1H-2,5-methanobenzo[4,5]imidazo[1,2-d][1,7]diazepin-8-yl)methyl)morpholine], the IC50 under setting [1] is over 1000 nM. For the compound `CC1Cc2nc3cc(Br)ccc3n2CCN1C1CCC1` (stereo not drawn) [Compound 40, 8-bromo-3-cyclobutyl-4-methyl-2,3,4,5-tetrahydro-1H-benzo[4,5]imidazo[1,2-d][1,4]diazepine], under setting [1], the IC50 was under 100 nM. As to `CC1Cc2nc3cc(-c4ccc(C#N)cc4)ccc3n2CCN1C1CCC1` (stereo not drawn) [Compound 41, 4-(3-cyclobutyl-4-methyl-2,3,4,5-tetrahydro-1H-benzo[4,5]imidazo[1,2-d][1,4]diazepin-8-yl)benzonitrile], under setting [1], the IC50 was under 10 nM. Take `CC1Cn2c(nc3cc(Br)ccc32)CCN1C1CCC1` (stereo not drawn) [Compound 42, 8-bromo-3-cyclobutyl-2-methyl-2,3,4,5-tetrahydro-1H-benzo[4,5]imidazo[1,2-d][1,4]diazepine]: the IC50 under setting [1] was under 1000 nM. As to `CC1Cn2c(nc3cc(-c4ccc(C#N)cc4)ccc32)CCN1C1CCC1` (stereo not drawn) [Compound 43, 4-(3-cyclobutyl-2-methyl-2,3,4,5-tetrahydro-1H-benzo[4,5]imidazo[1,2-d][1,4]diazepin-8-yl)benzonitrile], the IC50 under setting [1] was under 100 nM.

Consider `c1cn2cc(-c3ccc4c(c3)nc3n4CCN4CCCC[C@H]4C3)ccc2n1` [Compound 49, (S)-11-(imidazo[1,2-a]pyridin-6-yl)-1,2,3,4,6,7,14,14a-octahydrobenzo[4,5]imidazo[1,2-d]pyrido[2,1-g][1,4]diazepine], for which the IC50 under setting [1] is under 100 nM. Consider `Brc1ccc2c(c1)nc1n2CCN(C2CCC2)C1` [Compound 52, 8-bromo-2-cyclobutyl-1,2,3,4-tetrahydrobenzo[4,5]imidazo[1,2-a]pyrazine], for which the IC50 under setting [1] was over 1000 nM.

Regarding `N#Cc1ccc(-c2ccc3c(c2)nc2n3CCN(C3CCC3)C2)cc1` [Compound 53, 4-(2-cyclobutyl-1,2,3,4-tetrahydrobenzo-[4,5]imidazo[1,2-a]pyrazin-8-yl)benzonitrile], under setting [1], the IC50 is under 1000 nM. As for `c1cn2cc(-c3ccc4c(c3)nc3n4CCN(C4CCC4)C3)ccc2n1` [Compound 54, 2-cyclobutyl-8-(imidazo[1,2-a]pyridin-6-yl)-1,2,3,4-tetrahydrobenzo[4,5]imidazo[1,2-a]pyrazine], the IC50 under setting [1] was under 1000 nM. The same measure, in the same setting: the value for `c1ccc2c(c1)ncn2-c1ccc2c(c1)nc1n2CCN(C2CCC2)C1` [Compound 55, 8-(1H-benzo[d]imidazol-1-yl)-2-cyclobutyl-1,2,3,4-tetrahydrobenzo[4,5]imidazo[1,2-a]pyrazine] was under 1000 nM; that for `c1cc2c(cc1CN1CCOCC1)nc1n2CCN(C2CCC2)C1` [Compound 56, 4-((2-cyclobutyl-1,2,3,4-tetrahydrobenzo-[4,5]imidazo[1,2-a]pyrazin-8-yl)methyl)morpholine] was under 10 nM.

`Clc1ccc2c(c1)nc1n2CCCN(C2CCC2)CC1` [Compound 57, 10-chloro-3-cyclobutyl-1,2,3,4,5,6-hexahydrobenzo[4,5]imidazo[1,2-a][1,5]diazocine]: the IC50 under setting [1] was under 100 nM. Turning to `N#Cc1ccc(-c2ccc3c(c2)nc2n3CCCN(C3CCC3)CC2)cc1` [Compound 58, 4-(3-cyclobutyl-1,2,3,4,5,6-hexahydrobenzo[4,5]imidazo[1,2-a][1,5]diazocin-10-yl)benzonitrile], the IC50 under setting [1] was under 10 nM.

On to `c1cn2cc(-c3ccc4c(c3)nc3n4CC4CCC(C3)N4C3CCC3)ccc2n1` (stereo not drawn) [Compound 60, 13-cyclobutyl-3-(imidazo[1,2-a]pyridin-6-yl)-6,7,8,9,10,11-hexahydro-7,10-epiminobenzo[4,5]imidazo[1,2-a]azocine], for which the IC50 under setting [1] is under 10 nM.

For the compound `c1ccc2c(c1)ncn2-c1ccc2c(c1)nc1n2CC2CCC(C1)N2C1CCC1` (stereo not drawn) [Compound 61, 3-(1H-benzo[d]imidazol-1-yl)-13-cyclobutyl-6,7,8,9,10,11-hexahydro-7,10-epiminobenzo[4,5]imidazo[1,2-a]azocine], under setting [1], the IC50 was under 100 nM. The same measure, in the same setting: the value for `c1cc2c(cc1CN1CCOCC1)nc1n2CC2CCC(C1)N2C1CCC1` (stereo not drawn) [Compound 62, 4-((13-cyclobutyl-6,7,8,9,10,11-hexahydro-7,10-epiminobenzo[4,5]imidazo[1,2-a]azocin-3-yl)methyl)morpholine] was under 100 nM. For the compound `c1ccc2c(c1)CCN(Cc1ccc3c(c1)nc1n3CCN3CCCC[C@H]3C1)C2` [Compound 65, (S)-11-((3,4-dihydroisoquinolin-2(1H)-yl)methyl)-1,2,3,4,6,7,14,14a-octahydrobenzo[4,5]imidazo[1,2-d]pyrido[2,1-g][1,4]diazepine], the IC50 under setting [1] is under 100 nM. Take `N#Cc1ccc(-c2ccc3c(c2)nc2n3CCCN3CCCCC3C2)cc1` (stereo not drawn) [Compound 66, 4-(2,3,4,6,7,8,15,15a-octahydro-1H-benzo[4,5]imidazo[1,2-a]pyrido[2,1-d][1,5]diazocin-12-yl)benzonitrile]: the IC50 under setting [1] is under 10 nM.

In the case of `c1cn2cc(-c3ccc4c(c3)nc3n4CCCN4CCCCC4C3)ccc2n1` (stereo not drawn) [Compound 67, 12-(imidazo[1,2-a]pyridin-6-yl)-2,3,4,6,7,8,15,15a-octahydro-1H-benzo[4,5]imidazo[1,2-a]pyrido[2,1-d][1,5]diazocine], under setting [1], the IC50 is under 10 nM.

Regarding `c1cc2c(cc1CN1CCOCC1)nc1n2CCCN2CCCCC2C1` (stereo not drawn) [Compound 68, 4-((2,3,4,6,7,8,15,15a-octahydro-1H-benzo[4,5]imidazo[1,2-a]pyrido[2,1-d][1,5]diazocin-12-yl)methyl)morpholine], the IC50 under setting [1] was under 100 nM. The same measure, in the same setting: for `c1ccc2c(c1)CCN(Cc1ccc3c(c1)nc1n3CCCN3CCCCC3C1)C2` (stereo not drawn) [Compound 69] the value was under 100 nM.
